# “And” between values parts separate entries of the source, which are not always exact repeats. Equal entries are not always repeated.
# Key:
# Type in all cases: cell-based
# [1] = tested on: Pseudomonas aeruginosa (ATCC 15442) biofilm; experiment: MBEC biofilm eradication test (Calgary biofilm device); conditions: one-hour biocide contact time; for MBEC (minimum biofilm eradication concentration): individual determinations
# Text: Table 45 summarizes test results performed at MBEC Biofilm Technologies, Inc., Calgary, Canada on the effectiveness of various biocides on biofilm removal. The test procedure, developed at the University of Calgary, utilizes a device which allows the growth of 96 identical biofilms under carefully controlled conditions. The device consists of a two-part vessel comprised of an upper plate containing 96 pegs that seals against a bottom plate. The bottom plate can consist of either a trough (for biofilm growth) or a standard 96-well plate (for biocide challenge). The biofilms develop on the 96 pegs. The device has been used as a general method for evaluating the efficacy of antibiotics and biocides towards biofilms. See in this connection H. Ceri, et al., “The MBEC Test: A New In Vitro Assay Allowing Rapid Screening for Antibiotic Sensitivity of Biofilm”, Proceedings of the ASM, 1998, 89, 525; Ceri, et al., “Antifungal and Biocide Susceptibility testing of Candida Biofilms using the MBEC Device”, Proceedings of the Interscience Conference on Antimicrobial Agents and Chemotherapy, 1998, 38, 495; and H. Ceri, et al., “The Calgary Biofilm Device: A New Technology for the Rapid Determination of Antibiotic Susceptibility of Bacterial Biofilms”, Journal of Clinical Microbiology, 1999, 37, 1771-1776.
# Six biocide systems were evaluated using the above test procedure and test equipment. Five of these systems were oxidizing biocides, viz., chlorine (from NaOCl), halogen (from NaOCl+NaBr), halogen (from BCDMH), bromine (from DBDMH), and chlorine (from trichloroisocyanuric acid), all expressed as bromine as Br2 in mg/L, so that all test results were placed on the same basis. The sixth biocide was glutaraldehyde, a non-oxidizing biocide.
# These biocide systems were used to challenge biofilms of Pseudomonas aeruginosa (ATCC 15442). This is a Gram (−) bacterium which is ubiquitous in microbiological slimes found in many water systems. See in this connection J. W. Costerton and H. Anwar, “Pseudomonas aeruginosa: The Microbe and Pathogen”, in Pseudomonas aeruginosa Infections and Treatment, A. L. Baltch and R. P. Smith editors, Marcel Dekker publishers, New York, 1994. In the field of poultry processing, S. Notermans, J. Dormans, and G. C. Mead, Biofouling, 1991, Vol. 5, pages 21-36, report observation of biofilms in poultry slaughter houses by use of scanning electron microscopy.
# In Table 45 the MBEC (minimum biofilm eradication concentration) results presented are for the one-hour biocide contact time used in the test. The values given for the halogen containing biocides are expressed in terms of mg/L of bromine as Br2. The data on the glutaraldehyde is in terms of mg/L as active ingredient. […] In fact, only slightly more than one-half as much bromine from DBDMH was required to remove the biofilm as compared to the total halogen, expressed as Br2, that was required from BCDMH.
# [2] = tested on: Escherichia coli field strain; experiment: Chill water bacteria count (Example 1); conditions: bacteria count per mL of treatment water
# Text: (§1) The effect of these treatments on the residual chill tank water was also investigated. Carcasses were first immersed in a warm bath containing 10^4 E coli per mL of liquid. Carcasses were then immersed in chill tanks containing normal organic fluids (blood, fat, skin, and meat particles) and containing one of the respective microbiocidal compositions under test. Total bacteria count of whole bird (both inside and outside) was used to determine efficacy of various microbiocidal compositions. […] Albemarle Corporation). The trial events and experimental design used were as follows: • a) For all treatments a total of 190 birds were processed in a normal fashion. […] This was best done by grasping the broiler carcass with one hand and the closed top of the bag with the other then rocking with a reciprocal motion in a 18-24 inch arc, assuring that all carcass surfaces (interior and exterior) were rinsed. • h) The rinse solutions were then transferred from each stomacher bag into individual sample bottles, taking care to ensure that the information on the date of collection, time of collection, and treatment group matched that of the sample. Each bottle was sealed with parafilm and stored in a refrigerator. • i) Dilution of the fluids was conducted such that a 25-250 count was present on the MacConkey plate. […] Poultry carcass microbial contamination measurement was achieved by the complete washing of the entire carcass surface (inside and outside) using suitable sterile stripping solution followed by collection and plating of the stripping solution for bacterial enumeration.
# [3] = tested on: Escherichia coli field strain; experiment: Carcass total bacteria count after 1.5-hour chill tank immersion (Example 1); conditions: average of 10 birds; for Mean Bacteria Reduction (carcass): 1.5 h chill tank
# Text: as §1
# [4] = 100 ppm Cl2 equivalent (Aquatize: 100 ppm sodium chlorite)
# [5] = 150 ppm Cl2 equivalent (Aquatize: 150 ppm sodium chlorite)
# [6] = 50 ppm Cl2 equivalent (Aquatize: 50 ppm sodium chlorite)
compound,measurement,setting,value
[Na+].[O-]Cl [NaOCl],"MBEC, avg.",[1],3.8 mg/L of bromine as Br2
same,MBEC (minimum biofilm eradication concentration),[1],5.0 mg/L of bromine as Br2 and 2.5 mg/L of bromine as Br2
"[Br-].[Na+] [Sodium bromide, sodium bromide]",Chill Water Bacteria Count (Mean Bacteria Reduction),"[2]; 50 ppm Cl2 equivalent (Aquatize: 50 ppm sodium chlorite), negative control 5.11 × 10^3",4.67 × 10^3 per mL
same,Chill Water Bacteria Count (Mean Bacteria Reduction),[2]; [4],3.49 × 10^3 per mL
same,Chill Water Bacteria Count (Mean Bacteria Reduction),[2]; [5],2.23 × 10^3 per mL
same,Mean Bacteria Reduction (carcass),"[3]; 50 ppm Cl2 equivalent (Aquatize: 50 ppm sodium chlorite), control carcass 2.67 × 10^5 total count",92
same,Mean Bacteria Reduction Count (carcass),[3]; [6],92
same,Percent Bacteria Reduction From Control (carcass),[3]; [6],0.034%
same,Mean Bacteria Reduction (carcass),[3]; [4],6.54 × 10^2
same,Mean Bacteria Reduction Count (carcass),[3]; [4],654
same,Percent Bacteria Reduction From Control (carcass),[3]; [4],0.245%
same,Mean Bacteria Reduction (carcass),[3]; [5],1.73 × 10^3
same,Mean Bacteria Reduction Count (carcass),[3]; [5],"1,730"
same,Percent Bacteria Reduction From Control (carcass),[3]; [5],0.648%
"O=c1n(Cl)c(=O)n(Cl)c(=O)n1Cl [Trichloroisocyanuric acid, trichloroisocyanuric acid]","MBEC, avg.",[1],2.0 mg/L of bromine as Br2
same,MBEC (minimum biofilm eradication concentration),[1],2.6 mg/L of bromine as Br2 and 1.3 mg/L of bromine as Br2
"O=CCCCC=O [Glutaraldehyde, glutaraldehyde]","MBEC, avg.",[1],50 mg/L as active ingredient
same,MBEC (minimum biofilm eradication concentration),[1],"50, 50 mg/L as active ingredient"

# — patent US7767240B2, “Microbiological control in poultry processing” (priority 2001, dated 2010)
